These results are taken from ChEMBL document CHEMBL1909588, “Synthesis and in vitro antitubercular evaluation of novel sansanmycin derivatives” (2011).

Converted amounts (≈) assume the structure as drawn.

The test system of the assay is Mycobacterium tuberculosis. Briefly: Antitubercular activity against Mycobacterium tuberculosis H37Rv […] by microplate alamar blue assay. It is filed as functional. On the technique in general: Alamar Blue is a resazurin reagent that responds to reducing activity.
Consider `CSCCC(NC(=O)NC(Cc1c[nH]c2ccccc12)C(=O)O)C(=O)NC(C(=O)N/C=C1\C[C@@H](O)[C@H](n2ccc(=O)[nH]c2=O)O1)C(C)N(C)C(=O)C(Cc1cccc(O)c1)N(C)C` (stereo not given in full), for which 16 µg/mL (≈ 17.9 µM) was the least that counted as inhibitory (MIC). To `CCNC(Cc1cccc(O)c1)C(=O)N(C)C(C)C(NC(=O)C(CCSC)NC(=O)NC(Cc1c[nH]c2ccccc12)C(=O)O)C(=O)N/C=C1\C[C@@H](O)[C@H](n2ccc(=O)[nH]c2=O)O1` (stereo not given in full) belongs above 16 µg/mL; to `CCCNC(Cc1cccc(O)c1)C(=O)N(C)C(C)C(NC(=O)C(CCSC)NC(=O)NC(Cc1c[nH]c2ccccc12)C(=O)O)C(=O)N/C=C1\C[C@@H](O)[C@H](n2ccc(=O)[nH]c2=O)O1` (stereo not given in full), above 16 µg/mL. `CSCCC(NC(=O)NC(Cc1c[nH]c2ccccc12)C(=O)O)C(=O)NC(C(=O)N/C=C1\C[C@@H](O)[C@H](n2ccc(=O)[nH]c2=O)O1)C(C)N(C)C(=O)C(Cc1cccc(O)c1)NC(C)C` (stereo not given in full) returned an MIC of 8 µg/mL (≈ 8.83 µM). The same measure for `CCCCNC(Cc1cccc(O)c1)C(=O)N(C)C(C)C(NC(=O)C(CCSC)NC(=O)NC(Cc1c[nH]c2ccccc12)C(=O)O)C(=O)N/C=C1\C[C@@H](O)[C@H](n2ccc(=O)[nH]c2=O)O1` (stereo not given in full): above 16 µg/mL; for `CCCCCNC(Cc1cccc(O)c1)C(=O)N(C)C(C)C(NC(=O)C(CCSC)NC(=O)NC(Cc1c[nH]c2ccccc12)C(=O)O)C(=O)N/C=C1\C[C@@H](O)[C@H](n2ccc(=O)[nH]c2=O)O1` (stereo not given in full): above 16 µg/mL; for `CSCCC(NC(=O)NC(Cc1c[nH]c2ccccc12)C(=O)O)C(=O)NC(C(=O)N/C=C1\C[C@@H](O)[C@H](n2ccc(=O)[nH]c2=O)O1)C(C)N(C)C(=O)C(Cc1cccc(O)c1)NC(=O)CCl` (stereo not given in full): above 16 µg/mL. To `CSCCC(NC(=O)NC(Cc1c[nH]c2ccccc12)C(=O)O)C(=O)NC(C(=O)N/C=C1\C[C@@H](O)[C@H](n2ccc(=O)[nH]c2=O)O1)C(C)N(C)C(=O)C(Cc1cccc(O)c1)NC(=O)c1ccccc1` (stereo not given in full) belongs above 16 µg/mL; to `COC(=O)NC(Cc1cccc(O)c1)C(=O)N(C)C(C)C(NC(=O)C(CCSC)NC(=O)NC(Cc1c[nH]c2ccccc12)C(=O)O)C(=O)N/C=C1\C[C@@H](O)[C@H](n2ccc(=O)[nH]c2=O)O1` (stereo not given in full), above 16 µg/mL. The same measure for `CCOC(=O)NC(Cc1cccc(O)c1)C(=O)N(C)C(C)C(NC(=O)C(CCSC)NC(=O)NC(Cc1c[nH]c2ccccc12)C(=O)O)C(=O)N/C=C1\C[C@@H](O)[C@H](n2ccc(=O)[nH]c2=O)O1` (stereo not given in full): above 16 µg/mL.

`CSCCC(NC(=O)NC(Cc1c[nH]c2ccccc12)C(=O)O)C(=O)NC(C(=O)N/C=C1\C[C@@H](O)[C@H](n2ccc(=O)[nH]c2=O)O1)C(C)N(C)C(=O)C(Cc1cccc(O)c1)NC(=O)OCc1ccccc1` (stereo not given in full) came in with an MIC above 16 µg/mL.

Consider `CSCCC(NC(=O)NC(Cc1c[nH]c2ccccc12)C(=O)O)C(=O)NC(C(=O)N/C=C1\C[C@@H](O)[C@H](n2ccc(=O)[nH]c2=O)O1)C(C)N(C)C(=O)C(Cc1cccc(O)c1)NS(C)(=O)=O` (stereo not given in full), for which the MIC was above 16 µg/mL. To `CSCCC(NC(=O)NC(Cc1c[nH]c2ccccc12)C(=O)O)C(=O)NC(C(=O)N/C=C1\C[C@@H](O)[C@H](n2ccc(=O)[nH]c2=O)O1)C(C)N(C)C(=O)C(Cc1cccc(O)c1)NS(=O)(=O)c1ccccc1` (stereo not given in full) belongs above 16 µg/mL. To `CSCCC(NC(=O)NC(Cc1c[nH]c2ccccc12)C(=O)O)C(=O)NC(C(=O)N/C=C1\C[C@@H](O)[C@H](n2ccc(=O)[nH]c2=O)O1)C(C)N(C)C(=O)C(Cc1cccc(O)c1)NS(=O)(=O)c1ccc(C)cc1` (stereo not given in full) belongs above 16 µg/mL; to `COc1ccc(S(=O)(=O)NC(Cc2cccc(O)c2)C(=O)N(C)C(C)C(NC(=O)C(CCSC)NC(=O)NC(Cc2c[nH]c3ccccc23)C(=O)O)C(=O)N/C=C2\C[C@@H](O)[C@H](n3ccc(=O)[nH]c3=O)O2)cc1` (stereo not given in full), above 16 µg/mL; to `CSCCC(NC(=O)NC(Cc1c[nH]c2ccccc12)C(=O)O)C(=O)NC(C(=O)N/C=C1\C[C@@H](O)[C@H](n2ccc(=O)[nH]c2=O)O1)C(C)N(C)C(=O)C(Cc1cccc(OC(C)=O)c1)NC(C)=O` (stereo not given in full), above 16 µg/mL.

As for `CSCCC(NC(=O)NC(Cc1c[nH]c2ccccc12)C(=O)O)C(=O)NC(C(=O)N/C=C1\C[C@@H](OC(C)=O)[C@H](n2ccc(=O)[nH]c2=O)O1)C(C)N(C)C(=O)C(Cc1cccc(OC(C)=O)c1)NC(C)=O` (stereo not given in full), the MIC is above 16 µg/mL.

`NNC(=O)c1ccncc1` [ISONIAZID] returned an MIC of 0.05 µg/mL (≈ 0.365 µM). The same measure for `CO[C@H]1/C=C/O[C@@]2(C)Oc3c(C)c(O)c4c(O)c(c(/C=N/N5CCN(C)CC5)c(O)c4c3C2=O)NC(=O)/C(C)=C\C=C\[C@H](C)[C@H](O)[C@@H](C)[C@@H](O)[C@@H](C)[C@H](OC(C)=O)[C@@H]1C` [RIFAMPIN]: 0.12 µg/mL (≈ 0.146 µM); for `CSCCC(NC(=O)NC(Cc1c[nH]c2ccccc12)C(=O)O)C(=O)NC(C(=O)N/C=C1\C[C@@H](O)[C@H](n2ccc(=O)[nH]c2=O)O1)C(C)N(C)C(=O)C(N)Cc1cccc(O)c1` (stereo not given in full) [SANSANMYCIN A]: 16 µg/mL (≈ 18.5 µM).

One may read the MIC as the lowest concentration that inhibits growth of the organism. A lower MIC goes with inhibition by little substance.
